Source: PubChem BioAssay AID540258 (Broad Institute, 2011)
Active and inactive are the calls of the source.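 Rule for the calls: active = fitted curve reaching 40% activation at or below the top valid dose tested; inconclusive = flat curve at 30 to 70% activation, or poor fit; inactive = the rest.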

test system: SK-MEL-5 TRPM1 promoter luciferase reporter, 24 h; assay: MITF activators via TRPM1 promoter reporter, dose response, SK-MEL-5 cells, luciferase, cherry-pick samples (AID 540258);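 note: potency for activators that raise TRPM1 promoter luciferase signal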

SMILES | AC40
O=c1nc2sc3ccccc3n2c(=O)n1-c1ccc(Cl)cc1 | 3.48 µM
COc1ccc2c(c1)CC/C2=N\OC(=O)c1ccccc1C | 1.27 µM
O=C(Nc1ccc2ccccc2c1)c1cc(F)c(F)cc1Cl | 1.86 µM
O=C(Nc1cccnc1)c1cc(-c2ccc(Cl)cc2)on1 | 15.3 µM
Cc1cccc(OCc2nc(-c3nonc3N)no2)c1C | 3.81 µM
COc1ccc(-c2ccc3oc(-c4ccsc4)cc(=O)c3c2)cn1 | 1.79 µM
COc1cccc(/C(C)=N/N=C(\C)c2cccc(OC)c2)c1 | 3.27 µM
COc1ccc(C2=NN(c3ccccc3)C(c3ccc(OC)c(OC)c3)C2)cc1 (centres undefined) | 25.6 µM
Nc1ccc2oc(=O)c3ccccc3c2c1 | 3.19 µM
NC(=O)c1cnn(-c2cc(Oc3ccccc3)ncn2)c1N | 2.88 µM
Cc1ccc(C2=NN(S(C)(=O)=O)C(c3cccs3)C2)cc1 (centres undefined) | 2.09 µM
Cc1nn(-c2ccc(N3CCCCC3)nn2)c(C)c1CCC(=O)Nc1cccc(F)c1 | 3.23 µM
Cc1ccc2cc(/C=N/Nc3ccc(C(=O)O)cc3)c(Cl)nc2c1 | 1.37 µM
COc1cc(OC)cc(-c2cc3cc(F)ccc3cn2)c1 | 1.71 µM
c1ccc(-n2nnc(-c3cccnc3)n2)cc1 | 8.4 µM
COc1ccc(-c2nnc(SCc3ccccc3)n2N)cc1 | 5.97 µM
O=C(NCCc1ccccc1)c1nccc2ccccc12 | 19.2 µM
Cc1cnc(NC(=O)Nc2ccc(Cl)cc2)s1 | 1.38 µM
COc1ccc(NC(=O)c2ccc3[nH]c(C)c(C)c3c2)cc1 | 22.4 µM
COc1ccc2cc(CCNC(=O)c3cccs3)c(=O)[nH]c2c1 | 1.95 µM
C(=C\c1nnc(-c2cccs2)o1)/c1ccccc1 | 0.734 µM
CC(=O)c1cccc(NC(=O)c2cc3nc(C)cc(C)n3n2)c1 | 2.7 µM
CCC(=O)Nc1sc(C(=O)Nc2ccccc2F)c(C)c1C(=O)OC | 0.568 µM
Cc1ccc(C(=O)Nc2cccc(O)c2)cc1S(=O)(=O)N1CCCCCC1 | 8.12 µM
CCCn1nnc(NC(=O)c2ccc(-c3ccccc3)cc2)n1 | 2.69 µM
Cc1cccnc1NC(=O)Nc1cccc(Cl)c1 | 2.56 µM

SMILES | AC40
CCCn1nnc2sc3c(c2c1=O)CCC(C)C3 (centres undefined) | 3.32 µM
C/C(=N\Nc1ccccn1)c1ccc(C(C)C)cc1 | 4.34 µM
O=C1c2ccccc2/C(=C\C#Cc2ccccn2)N1c1ccccc1 | 3.93 µM
COc1ccc(-c2cc3nc4ccccc4n3c(N)c2C#N)cc1 | 1.83 µM
Cc1ccn2c(C(=O)c3ccc(Cl)cc3)cnc2c1 | 0.803 µM
CCCCNC(=O)c1cc2ccccc2s1 | 31 µM
Cc1ccc2c(c1N)C(=O)c1ccccc1C2=O | 3.96 µM
Clc1ccc(-c2ccc(SCc3ccccn3)nn2)cc1 | 2.39 µM
c1ccc(C2=NN(c3ccccc3)CC2)cc1 | 1.69 µM
O=C(Nc1ccc(-c2nc3cccnc3s2)cc1)c1ccc(Cl)nc1 | 2.11 µM
COc1ccc(C(=O)Nc2cc3c4c(c2)CC(=O)N4CCC3)c(OC)c1 | 6.24 µM
CCCc1cc(-c2ccc3c(c2)COc2c4ccccc4nn2-3)on1 | 0.145 µM
COc1ccc(OC)c(/C=N/N(C)c2ccccc2)c1 | 1.44 µM
CC1CCN(c2ccc3c(c2)S(=O)(=O)c2ccccc2C3=O)CC1 | 0.442 µM
Cn1cccc1C(=O)N/N=C/c1c(Cl)cccc1Cl | 1.47 µM
CCS(=O)(=O)N1Cc2ccccc2CC1C(=O)NCc1cccc(OC)c1 (centres undefined) | > 35 µM (inactive)
CCNc1nc(N)nc(Oc2ccc(C(=O)OC)cc2)n1 | 3.64 µM
Cc1ccc(Nc2ncc3c(n2)CC(C)(C)CC3=O)cc1 | 0.65 µM
COc1cc(OC)c2c(-c3cccc(/C=C/c4ccc(F)cc4)c3)cc(=O)oc2c1 | 6.95 µM
O=C(Nc1ccc(N2CCCCC2)cc1)c1cncc(Br)c1 | 0.969 µM
Oc1ccc(Br)cc1/C=N/N1CCCCC1 | 1.75 µM
COc1cccc(NC(=O)C(=O)NCCC2CCCCN2S(=O)(=O)c2cccs2)c1 (centres undefined) | 4.24 µM
CCN(CC)CC(=O)Nc1scc2c1c(=O)oc1ccccc12 | 6.27 µM
O=C(Nc1ccccc1Cl)c1ccc2nccnc2c1 | 4.21 µM
CN(c1ccccc1)c1nc2ccsc2c(=O)s1 | 5.15 µM
Nc1ccc(Oc2cc(N)cc(Oc3ccccc3)c2)cc1 | 4.99 µM

SMILES | AC40
CC(NC(=O)c1cc(COc2ccccc2)on1)c1nccs1 (centres undefined) | 0.721 µM
Clc1ccc(OCc2noc(-c3ccsc3)n2)c(Cl)c1 | 1.45 µM
c1ccc(CCn2nnc3ccccc32)cc1 | 0.867 µM
CCn1c(/C=C/c2c[nH]c3ccccc23)nc2ccccc2c1=O | 0.583 µM
O=C(N/N=C\c1cccc(Cl)c1)c1n[nH]c2c1CCCC2 | 0.504 µM
Cc1ccccc1-c1nc(Cc2ccccc2)no1 | 2.78 µM
c1ccc(CSCc2nc3ccccc3[nH]2)cc1 | 6.65 µM
Cc1nc2cc3nc(C)sc3cc2s1 | 7.83 µM
c1ccc(-c2ccc3[nH]ccc3c2)cc1 | 14 µM
CCN1CCN(c2ccc(NC(=O)c3cccc(F)c3)cc2Cl)CC1 | 3.08 µM
CN(C)c1ccnc2sc3c(SCc4ccc(Cl)cc4)ncnc3c12 | 4.29 µM
c1cc(-c2cc3cc4c(cc3cn2)OCO4)cs1 | 2.12 µM
COc1ccc(/C=N/N=C2/SCC(=O)N2Cc2ccccc2)cc1 | 2.67 µM
O=C(O)c1ccccc1N/N=C/c1cc(Br)cc(Br)c1O | 4.58 µM
O=c1nc(/C=C/c2ccc(O)c(O)c2)oc2ccccc12 | 6.32 µM
Cc1ccc(-n2nnc3ccccc3c2=O)cc1C | 2.62 µM
CS(=O)(=O)N1CCc2cc(C(=O)Nc3ccccc3Br)ccc21 | 4.96 µM
Cc1cc(C(=O)Cn2nc(C(=O)O)c3ccccc3c2=O)c(C)n1CC(F)(F)F | 9.43 µM
CC(C)c1ccc(N=C2NN=C(c3cccs3)CS2)cc1 | 0.547 µM
O=C(N/N=C/c1ccc(Cl)cc1Cl)c1cccc(F)c1 | 1.95 µM
O=c1oc(-c2cccs2)nc2sc3c(c12)CCCCC3 | 6.42 µM
Nc1nc(-c2cc(-c3ccccc3)no2)cs1 | 0.331 µM
CCCCNc1ccc2c(c1)C1CC2CCN1C(=O)OCc1ccccc1 (centres undefined) | 3.32 µM
COC(=O)/C(=C1\Oc2ccc(C(C)(C)C)cc2S1)C(F)(F)F | 3.81 µM
CN(N=O)c1ccc(CC2CCc3ccccc32)cc1 (centres undefined) | 12.6 µM
Cc1ccc(Nc2cc(C)c3c(O)cccc3n2)cc1C | 3.4 µM

SMILES | AC40
Cc1ccc(/C=N/N2C(=O)c3ccccc3NC2c2ccc(C)cc2)cc1 (centres undefined) | 20.5 µM
c1ccc(CSc2ccc(-c3ccc4c(c3)OCO4)nn2)cc1 | 2.38 µM
CN(C)S(=O)(=O)c1cccc(-c2nnc(-c3ccccc3)o2)c1 | 8.86 µM
COc1cc(/C=C/c2noc(-c3ccccc3O)n2)ccc1OC(C)=O | 1.62 µM
COc1ccc(-c2csc(N(C)C(=O)c3cccs3)n2)cc1 | 6.73 µM
O=C(Nc1ccc(Cl)c(Cl)c1)Nc1ccccc1O | 0.982 µM
O=C(NC1CC1)c1sc2cc(Cl)ccc2c1Cl | 4.59 µM
Cc1nn2cc(-c3ccc(Cl)cc3)cnc2c1Cl | 8.04 µM
CC(=O)Nc1cccc(-c2nc3ccc(NC(C)=O)cc3s2)c1 | 1.29 µM
COc1ccc2c(c1OC)C(=O)OC2Nc1nc(-c2cc3cc(Br)ccc3oc2=O)cs1 (centres undefined) | 0.915 µM
CN(C)c1ccc(/C=C/c2cccc[n+]2[O-])cc1 | 14.3 µM
CCN(CC)C(=O)OCc1c(-c2ccccc2)ncc2ccccc12 | 11.9 µM
Cc1ccc(N2C(=O)S/C(=C/c3cn(C)c4ccccc34)C2=O)cc1 | 6.5 µM
CC1CCCC(C)N1C(=O)c1cc(-c2ccc3c(c2)OCO3)on1 (centres undefined) | 1.25 µM
O=C(Cc1ccccc1)Nc1nc(-c2cccs2)cs1 | 14.7 µM
CCCCN(C(=O)Cc1cccs1)c1nnc(-c2cccnc2)s1 | 5.05 µM
CS(=O)(=O)N1N=C(c2ccc(Br)cc2)CC1c1ccc2c(c1)OCO2 (centres undefined) | 2.95 µM
c1cnc(Nc2nc(-c3ccc4ccccc4c3)cs2)nc1 | 0.516 µM
CCc1ccc(NC(=O)C(=S)NC2CCCCC2)cc1 | 0.542 µM
Cc1cccc(-n2ncc3c(N4CC(C)CC(C)C4)ncnc32)c1 (centres undefined) | 0.749 µM
O=C(c1ccc(F)cc1)c1ccc(N2CCCCC2)cc1 | 1.49 µM
CCN(CC)C(=O)c1cc(-c2ccc(Br)cc2)on1 | 1.63 µM
Cc1ccccc1S(=O)(=O)/N=C(/Nc1nc2ccccc2s1)c1ccccc1 | 31 µM
COc1cc(O)c2c(=O)cc(-c3ccccc3)oc2c1 | 14.2 µM
CCCc1cc2c(=O)c(-c3ccccn3)coc2cc1OC | 1.81 µM
c1ccc2c(-c3csc(-c4ccncc4)n3)c[nH]c2c1 | 2.93 µM

SMILES | AC40
O=C1/C(=C/c2cccnc2)CCc2c1[nH]c1ccccc21 | 6.49 µM
Cc1ccc(NC(=O)C2C3/C=C\CCCCC32)cc1 (centres undefined) | 4.54 µM
CCCc1nc2ccc(NC(C)=O)cc2c(=O)n1Cc1ccc(Cl)cc1 | 2.92 µM
Cc1nn(C(=O)c2cccs2)c(N)c1-c1ccccc1 | 1.38 µM
COc1ccc(/C=N/Nc2snc(SC)c2C#N)cc1OC | 4.29 µM
CCCN(CCC)c1ncnc2c1cnn2-c1ccc(OC)cc1 | 0.256 µM
Cc1ccc(C(=O)N(CCN2CCCCC2)CC2CCCN(C3CCCC3)C2)s1 (centres undefined) | 5.39 µM
O=C(OCc1csc(-c2ccccc2)n1)c1ccc(O)cc1 | 7.95 µM
O=C(NCc1ccc2c(c1)OCO2)Nc1cccc(Cl)c1 | 8.57 µM
CCSc1nnc(NC(=O)NC2CCCCC2)s1 | > 35 µM (inactive)
O=C(Nc1ccc(C(F)(F)F)cc1)c1ccccc1 | 3.48 µM
CCS(=O)(=O)c1ccc2oc(Nc3ccccc3C)nc2c1 | 3.65 µM
CSc1ccc(CNc2ccc(Cl)cc2)cc1 | 5.67 µM
Nc1ccc(O)c2c(=O)cc(-c3ccccc3Cl)oc12 | 1.13 µM
c1ccc(Cc2cc(-c3ccccc3)on2)cc1 | 2.58 µM
O=C(Oc1ccc2ccccc2c1Cl)N1CCCCCC1 | 0.557 µM
Clc1ccc(N/N=C/c2cccnc2)cc1 | 9.36 µM
Fc1cc(Br)ccc1COc1ccc(-c2nnco2)cc1 | 3.08 µM
O=C(c1cc(COc2ccc(F)cc2Cl)on1)N1CCCCCC1 | 1.67 µM
COc1c(C)cccc1C(=O)Nc1ccc(N2CCN(S(C)(=O)=O)CC2)cc1 | 4.98 µM
CC1CCC(NC(=O)c2ccc(NS(=O)(=O)c3ccc4[nH]c(=O)[nH]c4c3)cc2)CC1 (centres undefined) | 25.1 µM
O=c1c2ccccc2oc2cc(-c3ccc4cc[nH]c4c3)ccc12 | 2.25 µM
CCn1c(COc2ccccc2C)nc2ccccc21 | 9.77 µM
c1ccc2oc(-c3ccc4nc[nH]c4c3)nc2c1 | 0.866 µM
COc1ccccc1/C=C/C=N/n1c(-c2ccccn2)n[nH]c1=S | 13.5 µM
